From paper PMC9424906 (Frontiers in Pharmacology, 2022)

How the values were obtained:
BCRP = target: T1, BCRP (Homo sapiens, UniProt Q9UNQ0); assay: Bidirectional transport in MDCK-BCRP monolayers; format: in vitro ADME; conditions: dog, pH 7.4; MDCK-BCRP cells; read-out: Efflux ratio of positive control
T1 construct: host or cells: MDCK (BCRP-MDCK)
T1 sequence (Q9UNQ0 1-655): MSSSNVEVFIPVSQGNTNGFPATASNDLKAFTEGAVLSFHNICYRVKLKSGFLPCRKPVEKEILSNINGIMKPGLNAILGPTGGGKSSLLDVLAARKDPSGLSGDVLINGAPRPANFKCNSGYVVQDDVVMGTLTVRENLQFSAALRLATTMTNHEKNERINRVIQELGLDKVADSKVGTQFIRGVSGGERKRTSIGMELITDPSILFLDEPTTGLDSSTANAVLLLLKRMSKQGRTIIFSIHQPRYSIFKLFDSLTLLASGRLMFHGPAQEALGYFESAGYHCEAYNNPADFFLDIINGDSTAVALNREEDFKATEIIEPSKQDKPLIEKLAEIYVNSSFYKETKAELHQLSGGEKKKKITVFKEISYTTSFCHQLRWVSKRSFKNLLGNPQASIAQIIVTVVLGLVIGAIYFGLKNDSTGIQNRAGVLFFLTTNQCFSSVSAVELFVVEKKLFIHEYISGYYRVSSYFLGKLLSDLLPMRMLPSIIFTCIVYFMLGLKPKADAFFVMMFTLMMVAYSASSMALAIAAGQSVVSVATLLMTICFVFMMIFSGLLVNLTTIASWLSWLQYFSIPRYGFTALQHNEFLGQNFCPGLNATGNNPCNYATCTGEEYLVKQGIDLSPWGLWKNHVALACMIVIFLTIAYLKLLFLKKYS
Description: Caco-2 (American Type Culture Collection), MDR1-MDCK (NIH), and BCRP-MDCK (transfected by Absorption Systems) cell monolayers were grown to confluence on collagen-coated, microporous membranes in 12-well assay plates. Caco-2 cells were cultured for 27 days, MDCK-MDR1 and MDCK-BCRP cells were cultured for 8 days prior to experiments. […] The experiment was carried out in Hanks’ balanced salt solution (HBSS) containing 10 mM HEPES and 15 mM glucose at pH 7.4. HBSS in the receiver chamber also contained 1% bovine serum albumin. Cells were first pre-incubated for 0.5 h in HBSS with or without the specific inhibitor (1 µM valspodar or 0.5 µM Ko143 for MDR1 and BCRP, respectively). […] Cell monolayers were dosed on the apical side (A to B) or basolateral side (B to A) and incubated at 37°C with 5% CO2 in a humidified incubator. Samples were taken from the donor and receiver chambers at 2 h. Each experiment was performed in duplicate. All samples were assayed by LC-MS/MS. The apparent permeability (Papp) and percent recovery were calculated as described previously ([Katoh et al., 2006]; [Xia et al., 2006]; [Li et al., 2008]).

[1] = Bidirectional transport in Caco-2 monolayers; conditions: human, Caco-2, pH 7.4
ENT1 = conditions: cited from earlier work
ENT2 = conditions: cited from earlier work
MDR1 = assay: in vitro; conditions: dog, MDCK-MDR1, pH 7.4
[2] = test system: mild to moderate COVID-19 patients at high risk of progression to severe disease; set-up: method as in https://www.fda.gov/media/154472/download; conditions: ref https://www.fda.gov/media/154472/download; cited from earlier work
[3] = test system: SARS-CoV-2 (2019-nCoV/USA-WAl/2020); format: cell-based; conditions: EpiAirway 3D HAE tissue model, 24 h
[4] = test system: SARS-CoV-2 (USA_WA1/2020); assay: SARS-CoV-2 cytopathic effect (CPE) assay in Vero E6 cells; format: cell-based; conditions: Severe acute respiratory syndrome coronavirus 2, Vero C1008, 72 h, read-out: EC50, inhibition of SARS-CoV-2 CPE
[5] = test system: mild to moderate COVID-19 patients at risk of progression to severe disease; set-up: method as in Gottlieb et al., 2021; conditions: early 3-day course, ref Gottlieb et al., 2021; cited from earlier work
[6] = test system: hospitalized COVID-19 patients; set-up: method as in Beigel et al., 2020a; conditions: treatment group, ref Beigel et al., 2020a; cited from earlier work
[7] = test system: EpiAirway human tracheobronchial epithelial tissues; conditions: EpiAirway 3D HAE tissue model

## Nc1nc(Cl)nc2c1ncn2[C@H]1C[C@H](O)[C@@H](CO)O1 [cladribine, reference compound]
BCRP
  efflux ratio at 2 h: 153
[1]
  efflux ratio at 2 h: 26

## O=c1nc(NO)ccn1[C@@H]1O[C@H](CO)[C@@H](O)[C@H]1O [EIDD-1931, N-hydroxycytidine]
ENT1
  Inhibitor of ENT1: inhibitors
ENT2
  Inhibitor of ENT2: inhibitors

## C[C@H]1O[C@@H](O[C@H]2[C@@H](O)C[C@H](O[C@H]3[C@@H](O)C[C@H](O[C@H]4CC[C@@]5(C)[C@H](CC[C@@H]6[C@@H]5C[C@@H](O)[C@]5(C)[C@@H](C7=CC(=O)OC7)CC[C@]65O)C4)O[C@@H]3C)O[C@@H]2C)C[C@H](O)[C@@H]1O [digoxin, reference compound]
MDR1
  efflux ratio at 2 h: 110
[1]
  efflux ratio at 2 h: 27

## CC(C)C(=O)OC[C@H]1O[C@@H](n2ccc(NO)nc2=O)[C@H](O)[C@@H]1O [EIDD-2801]
[2]
  Reduction of progression to hospitalization of death compared to placebo: 30%
ENT1
  Inhibitor of ENT1: inhibitors
ENT2
  Inhibitor of ENT2: inhibitors

## CCC(CC)COC(=O)[C@H](C)N[P@](=O)(OC[C@H]1O[C@@](C#N)(c2ccc3c(N)ncnn23)[C@H](O)[C@@H]1O)Oc1ccccc1 [remdesivir]
[3]
  Potency on viral titer (TCID50) at 24 h: lower potency than EIDD-2801
[4]
  EC50: 7.43 µM
[5]
  Reduction of progression to hospitalization or death: 87%
[6]
  Reduction of time to recovery: 33%
[7]
  Cytotoxicity: did not exhibit any cytotoxicity
